# How the values were obtained:
# S6K1 = S6K1 (Homo sapiens, UniProt P23443); experiment: S6K1 protein level in HEK293 cells, immunoblot; format: cell-based; design: reduced endogenous SGK isoform or S6K1 expression when administered to HEK293 cells for 48 h; endogenous in cells; host or cells: HEK293
# Protocol: A medium length linker composed of three PEG units was used in the first instance (Figure 1B and C). […] After 48 h of PROTAC treatment, cell lysates were analyzed by immunoblot analysis, and protein expression under each condition was quantified relative to the DMSO-only control. […] DAT1 reduced SGK3 expression by 60% at 1 μM and 75% at 10 μM after 48 h (Figure 1D). […] As expected, inhibition of CUL2 neddylation by means of the inhibitor MLN4924 (3 μM) or proteasome inhibition (MG132, 50 μM) blocked DAT1-induced degradation of SGK3 (Figure S1C).
# All cell treatments were carried out as described in figure legends, to a final DMSO concentration of 0.1% (v/v). Lysates were quantified. Immunoblotting was performed using standard procedures, described in brief below. Lysate concentration was quantified by Bradford Assay, and 10 μg of lysate was loaded in the LDS sample buffer for SDS-PAGE electrophoresis on Novex 4–12% Bis–Tris gels. Proteins were electrophoretically transferred onto nitrocellulose membranes (Amersham Protran 0.45 μm NC; GE Healthcare) at 80 V for 80 min on ice in transfer buffer. Transferred membranes were blocked with 5% (w/v) nonfat dry milk dissolved in TBS-T [20 mM Tris/HCl, pH 7.5, 150 mM NaCl, and 0.1% (v/v) Tween 20] at RT for 30 min, before incubation with the primary antibody overnight at 4 °C. The signal was produced with near-infrared secondary antibodies and detected using a Licor Biosciences Odyssey System, and the signal was quantified in Image Studio Lite.
# CDK18 = target: T1, CDK18 (Homo sapiens, UniProt Q07002); experiment: TMT global proteomic analysis of HEK293 cells; format: cell-based; conditions: HEK293, 0.3 μM, 8 h
# T1 construct: global proteomic analysis of HEK293 cells treated in the presence or absence of 0.3 μM SGK3-PROTAC1; endogenous in cells; host or cells: HEK293
# T1 sequence (Q07002 whole entry): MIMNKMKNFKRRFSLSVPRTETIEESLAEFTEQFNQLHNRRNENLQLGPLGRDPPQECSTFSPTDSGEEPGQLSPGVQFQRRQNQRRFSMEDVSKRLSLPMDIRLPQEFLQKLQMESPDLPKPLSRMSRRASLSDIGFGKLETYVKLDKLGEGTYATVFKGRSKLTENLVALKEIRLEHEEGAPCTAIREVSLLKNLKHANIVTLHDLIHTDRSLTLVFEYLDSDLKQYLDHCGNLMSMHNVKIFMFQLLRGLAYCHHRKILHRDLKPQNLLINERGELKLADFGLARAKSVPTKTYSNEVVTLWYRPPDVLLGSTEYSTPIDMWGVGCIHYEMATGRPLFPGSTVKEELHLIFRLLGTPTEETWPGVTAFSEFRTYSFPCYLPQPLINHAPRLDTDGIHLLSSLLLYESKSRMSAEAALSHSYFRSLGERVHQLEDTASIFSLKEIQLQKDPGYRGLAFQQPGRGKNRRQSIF
# Protocol: To establish the specificity of SGK3-PROTAC1 employing an unbiased approach, we performed quantitative Tandem–Mass–Tag (TMT)-labeled global proteomic analysis of HEK293 cells treated in the presence or absence of 0.3 μM SGK3-PROTAC1 compared to either 0.3 μM cisSGK3-PROTAC1 or DMSO for 8 h. Experiments were undertaken in triplicate, and analysis in Proteome Discoverer v2.2 using the Mascot search engine allowed relative quantification of 8766 proteins.
# Figure 4 TMT proteomic analysis of HEK293 cells treated with SGK3-PROTAC1. (A) Cells were treated with DMSO (control), SGK3-PROTAC1 (0.3 μM), or cisSGK3-PROTAC1 (0.3 μM) for 8 h and lysed. Lysates were subjected to immunoblot analysis with the indicated antibodies. (B) Lysates were examined by quantitative proteomics. […]
# Cell culture and proteomic sample preparation
# Cells pellets were lysed with 2 ml of lysis buffer (8 M Urea, 50 mM Ammonium bicarbonate containing protease inhibitor and phosphatase inhibitor). The sample were left on ice for 15 min and were then sonicated for 5 min in ice-cold water bath under high intensity with 30 sec on and off. After sonication, benzonase® endonuclease (Merck Millipore) with the volume ratio of 1: 100 were added into the lysate to degrade DNA and RNA. The lysate were then centrifuged at 12,000 rpm for 15 min at 4 °C, and supernatants were transferred into new eppendorf tubes. The protein concentration were measured with BCA assay (Pierce™ BCA Protein Assay Kit, Thermo). The lysate from each sample was reduced with 5 mM DTT at 45 °C for 30 min. Lysates were briefly centrifuged and were cool down to room temperature before alkylation in the dark with 10 mM iodoacetamide at room temperature. The alkylation was then quenched by the addition of 5 mM DTT. Samples were first digested by Lys-C with the weight ratio of 1:200 (w/w) for 4 h at 30 °c. Then, sample were diluted with 50 mM ammonium bicarbonate to 1.5 M Urea concentration. Samples were then digested with trypsin (Pierce trypsin, Thermo) at an enzyme to protein ratio of 1:50 (w/w) at room temperature with gentle shaking for overnight.
# The digest was stopped by the addition of 1% TFA (v/v), centrifuged at 10,000 g for 10 min at room temperature.
# The supernatant were desalted on 200 mg SepPak tC18 cartridge (Waters). Desalted peptides were dried by vacuum centrifugation using Speedvac (Thermo).
# TMT labelling and Basic C18 reverse phase (bRP) chromatography fractionation Each sample (200 μg of peptides each) was re-suspended in 100 μL of 100 mM TEAB buffer. The TMT labelling reagents were equilibrated to room temperature and 41 μL anhydrous acetonitrile was added to each reagent channel and softly vortexed for 10 min. Peptides were transferred to the corresponding TMT channels and incubated for 1 h at room temperature. The reaction was quenched with 8 μL of 5% hydroxylamine. To ensure complete labelling, 1 µg of labelled samples from each channel were analyzed by LC-MS/MS prior to mix. After evaluation, the complete TMT labelled 9 samples were then combined, acidified and dried. Sep-Pak desalting was then performed and the elution was dried to completeness.
# Ultimate 3000 high-pressure liquid chromatography (HPLC) system (Dionex) were used for basic C18 reverse phase chromatography fractionation operating at 569 µL/min with two buffers: buffer A (10 mM ammonium formate, pH 10) and buffer B (80% ACN, 10 mM ammonium formate, pH 10). […]
# S6K1, sequence (P23443 whole entry, canonical isoform): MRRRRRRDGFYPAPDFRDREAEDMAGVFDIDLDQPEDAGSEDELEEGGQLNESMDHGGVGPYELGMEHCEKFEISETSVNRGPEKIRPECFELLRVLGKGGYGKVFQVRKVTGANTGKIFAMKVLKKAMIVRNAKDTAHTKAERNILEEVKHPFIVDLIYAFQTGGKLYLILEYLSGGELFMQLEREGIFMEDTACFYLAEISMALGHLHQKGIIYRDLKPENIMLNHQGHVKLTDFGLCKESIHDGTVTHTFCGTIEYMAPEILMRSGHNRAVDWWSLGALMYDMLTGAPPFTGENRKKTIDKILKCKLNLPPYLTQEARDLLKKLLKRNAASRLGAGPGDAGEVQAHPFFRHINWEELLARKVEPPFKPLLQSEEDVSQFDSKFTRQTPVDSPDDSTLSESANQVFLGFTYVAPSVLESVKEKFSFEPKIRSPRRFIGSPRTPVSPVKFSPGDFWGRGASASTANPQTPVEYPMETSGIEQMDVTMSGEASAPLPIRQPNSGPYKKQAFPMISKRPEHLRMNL
"S6K1 level (S6K1; HEK293, 48 h, up to 10 μM)",Compound,Abundances (Grouped) (CDK18),Ratio: (SGK3-PROTAC1) / (cSGK3-PROTAC1) (CDK18),Ratio: (compound) / (DMSO) (CDK18),"S6K1 degradation (S6K1; HEK293, 8 h, doses of up to 1 μM)","S6K1 level (S6K1; HEK293, 48 h, 0.1 μM)","S6K1 degradation (S6K1; HEK293, 48 h, 1–10 μM)"
not significantly impacted,Cc1ccc(F)c(S(=O)(=O)Nc2ccc(-c3nc(OC[C@H]4CN(CCOCCOCCOCC(=O)N[C@H](C(=O)N5C[C@H](O)C[C@H]5C(=O)NCc5ccc(-c6scnc6C)cc5)C(C)(C)C)CCO4)c4cn[nH]c4n3)cc2)c1 [DAT1],–,–,–,–,–,–
–,Cc1ccc(F)c(S(=O)(=O)Nc2ccc(-c3nc(OC[C@H]4CN(CCCCCCOCCOCCOCC(=O)N[C@H](C(=O)N5C[C@H](O)C[C@H]5C(=O)NCc5ccc(-c6scnc6C)cc5)C(C)(C)C)CCO4)c4cn[nH]c4n3)cc2)c1 [SGK3-PROTAC1],66.1,0.727,0.652,no degradation,without effecting,moderate degradation
–,Cc1ccc(F)c(S(=O)(=O)Nc2ccc(-c3nc(OC[C@H]4CN(CCCCCCOCCOCCOCC(=O)N[C@H](C(=O)N5C[C@@H](O)C[C@H]5C(=O)NCc5ccc(-c6scnc6C)cc5)C(C)(C)C)CCO4)c4cn[nH]c4n3)cc2)c1 [cisSGK3-PROTAC1],126.5,–,1.144,–,–,–

# — article PMC6757289, “Design and Characterization of SGK3-PROTAC1, an Isoform Specific SGK3 Kinase PROTAC Degrader” (ACS Chemical Biology, 2019)
